# Results published in US20100159007A1, “PHARMACEUTICAL COMPOSITIONS FOR TRANSMUCOSAL DELIVERY OF A THERAPEUTICALLY ACTIVE AGENT ON THE BASIS OF SUBMICRON PARTICLES” (PHARMAKODEX LIMITED, priority 2006, published 2010).
# Key:
# [1] = Franz cell permeation and mass balance; type: in vitro ADME, pig
# Description: [table] […] A permeation study was performed in order to investigate over what period of time a quantifiable amount of drug could be detected in the receiver fluid. Individually calibrated Franz cells with an average surface area and volume of approximately 0.6 cm^2 and 2 ml respectively were employed to determine the permeation of sumatriptan from the submicron particle formulation. The oral pig mucosa was mounted between two halves of the Franz cell with the mucosal side facing the donor compartment. The receptor compartment 22, having a clamp attachment lug 24, was filled with receiver fluid 27 (10% ethanol in PBS), stirred constantly with a PTFE-coated magnetic follower driven by submersible magnetic stirrer and maintained at 37° C. in a water bath. Approximately 5 mg of each formulation 26 was placed into the donor compartment 21 and the donor compartment was covered with Parafilm® throughout the study. Following the application of the drug formulation, the receiver fluid 27 (200 μl) was removed from the receiver compartment 22 via the sampling arm 25 after, e.g. 1, 2, 4, 6, 24 and 48 hours and analysed via HPLC. Each removed sample was replaced by an equal volume of fresh pre-warmed (37° C.) receiver fluid. At the end of the experiment, a mass balance investigation was performed as follows: A. Surface drug (S), the surface of the oral mucosa containing each formulation was wiped carefully using a sequence of dry and wet cotton buds. Collectively, the cotton buds from each Franz cell were immersed into glass vials containing 5 ml of receiver fluid. The vials were placed in an oscillating shaker and left overnight. An aliquot of 1 ml of the sample was then removed and analysed via HPLC. B. The oral mucosa was placed into a glass vial containing 5 ml of receiver fluid, and placed on a shaker at room temperature overnight. An aliquot of 1 ml of the sample was then removed and analysed via HPLC. C. Franz cell receptor compartment interface (joining section with donor) was swabbed with cotton buds. Collectively, the cotton buds from each Franz cell were immersed into a glass vial containing 5 ml receiver fluid. The vials were then placed in an oscillating shaker and left overnight. An aliquot of 1 ml of the sample was then removed and analysed via HPLC. D. Franz cell donor compartment interface (joining section with receptor) and internal face of the donor compartment was swabbed with cotton buds. Collectively, the cotton buds from each Franz cell were immersed into a glass vial containing 5 ml receiver fluid. The vials were then placed in an oscillating shaker and left overnight. An aliquot of 1 ml of the sample was then removed and analysed via HPLC. This experiment was carried out with the submicron sumatriptan formulation (a remade batch corresponding to Example 1A, batch 25#37/01) (n=6), pure unprocessed sumatriptan (n=3) and blank (n=2), i.e. cells with no formulation applied. […] Test Item 1 is the 40% sumatriptan submicron particle formulation (approximately 5 mg applied to the surface of the mucosa, n=6±SD), Test Item 2 is the unprocessed sumatriptan raw material (approximately 5 mg applied to the surface of the mucosa, n=3±SD) and the Blank is no Test Item applied (n=2).
# [2] = Stability of sumatriptan in receiver fluid; type: physicochemical; settings: 48 hours
# Description: [table] […] The stability of the raw drug (sumatriptan) in the receiver fluid was determined when stored at 4° C., 25° C., 37° C. and −20° C. over a period of 48 hours.
# [3] = Solubility of sumatriptan in receiver fluid; type: physicochemical; settings: receiver fluid (10% ethanol in PBS), aqueous with cosolvent or surfactant or cyclodextrin; 10% ethanol in PBS (receiver fluid); read-out: maximum solubility
smiles,measurement,setting,value
CNS(=O)(=O)Cc1ccc2[nH]cc(CCN(C)C)c2c1 [sumatriptan],% recovered compared to what was applied,[1]; Donor,1.49%
same,Sumatriptan recovered,[1]; Donor,95.9 µg
same,% recovered compared to what was applied,[1]; Mucosa,8.10%
same,Sumatriptan recovered,[1]; Mucosa,522 µg
same,% recovered compared to what was applied,[1]; Plunger,5.37%
same,Sumatriptan recovered,[1]; Plunger,346 µg
same,% recovered compared to what was applied,[1]; Receptor,0.28%
same,Sumatriptan recovered,[1]; Receptor,18.2 µg
same,% recovered compared to what was applied,[1]; Surface,49.33%
same,Sumatriptan recovered,[1]; Surface,3180 µg
same,% recovered compared to what was applied,[1]; Total amount in receiver fluid,29.86%
same,Sumatriptan recovered,"[1]; Total amount in receiver fluid, approximately 5 mg applied",1920 µg
same,recovery,"[1]; pig, 5 mg, mass balance, based on weight of formulation applied, read-out: total amount recovered compared to the theoretical recovery, Mean",94.4%
same,Peak area (stability in receiver fluid),"[2]; 1 μg/ml, 4° C.",9366
same,Peak area (stability in receiver fluid),"[2]; 1 μg/ml, 25° C.",9415
same,Peak area (stability in receiver fluid),"[2]; 1 μg/ml, 37° C.",7094
same,Peak area (stability in receiver fluid),"[2]; 1 μg/ml, −20° C.",9514
same,Peak area (stability in receiver fluid),"[2]; 50 μg/ml, 4° C.",469462
same,Peak area (stability in receiver fluid),"[2]; 50 μg/ml, 25° C.",470115
same,Peak area (stability in receiver fluid),"[2]; 50 μg/ml, 37° C.",473418
same,Peak area (stability in receiver fluid),"[2]; 50 μg/ml, −20° C.",467385
same,solubility,[3],1930 µg/mL
